Laboratory results from patent US12440471B2, “Compositions and methods for the treatment of bronchopulmonary dysplasia (BPD) and BPD-associated pulmonary hypertension” (AyuVis Research, Inc., priority 2021, dated 2025).

What was measured:
[1] = system: hyperoxia-exposed BPD mouse model; experiment: BPD mouse model: western blot of lung homogenates; type: in vivo
Method: Western Blot Analysis. Western blot analyses for TLR4 (Cell Signaling Technology, Danvers, MA; 1:1000), Ang2 (1:500; Sigma, St. Louis, MO), TGFβ, NFkB, TNFα, IL-10, IL-1(3, IL-4, Vegf, eNos, Vegf-D, BmpRII, Vinculin (1:500; SantaCruz, Dallas, TX), were performed, as previously described (Leary, Das et al. 2019), by loading 30 μg of lung protein, followed by immunoblotting with the above antibodies and visualizing with Odyssey infrared imaging system (LI-COR Biosciences, Lincoln, NE). Densitometric quantification was done using ImageJ after normalizing with Vinculin, the loading control housekeeping protein.

pre-term lamb BPD model = experiment: Pre-term lamb BPD model: plasma cytokines; type: in vivo
mice or rat pups = experiment: Safety profile of AVR-48 in mice or rat pups (IV, SC, IN; MTD/NOAEL); type: in vivo
Method: Safety Profile of AVR-48. To assess the safety of AVR-48 (compound 8), two doses of intravenous (IV) slow bolus injections or subcutaneous (SC) injections or intranasal (IN) instillation were given to mice or rat pups (postnatal day 3-5 or P3-P5), >6 h apart. The total daily doses were up to 100 mg/kg/day IV, and up to 150 mg/kg/day SC, for 3 consecutive days. […] There was no change in any of the hematological or clinical chemistry parameters. Signs of discoloration, swelling, and macroscopic and microscopic signs of local irritation occurred at the site of administration in all treatment groups and were attributed to the administration vehicle (formulation of 10% DMSO, 20% Tetraglycol, and 20% PEG 400 in sterile water). […] Based on the parameters monitored in this study, the maximum tolerated dose (MTD) and no-observed-adverse-effect level (NOAEL) were considered to be 100 mg/kg/day via IV and 150 mg/kg/day via SC routes of dosing.
Animals. C57BL/6J mice were purchased from The Jackson Laboratory (Bar Harbor, ME, USA) and were maintained in a breeding colony at Drexel University, Philadelphia, PA, USA. Animal procedures were performed in accordance with the NIH Guide for the Care and Use of Laboratory Animals and were approved by the Institutional Animal Care and Use Committee (IACUC) of Drexel University Philadelphia, PA (Protocol No. 20706). Neonatal rat pups born from female pregnant Sprague Dawley Crl:CD (SD) rats (Charles River Laboratories, St-Constant, QC, Canada) were used for the toxicology and PK studies to evaluate safety, determine the maximum tolerated dose (MTD) and the PK profile of AVR-48. A minimum 6-day acclimation period was allowed between receipt of the animals and the start of treatment to accustom the rats to the laboratory environment. All rat studies were approved by the IACUC of ITR Laboratories, Canada (Protocol No. 74691).
Formulation of AVR-48 for efficacy and toxicokinetic studies. For the mouse dose response efficacy studies, AVR-48 was reconstituted in 0.9% sterile normal saline to give a final dose concentration of […] as a colorless solution, and injected IP (30 μl) on P2 and P4. The PLGA encapsulated AVR-48 or the GFP-tagged analog was resuspended in deionized sterile water to make a nanosuspension with final dose concentration of 0.025, 0.05 and 0.11 mg/kg/drop. The surfactant Curosurf® (Cheisi Parma, Italy), available commercially, was delivered IN at a volume of 3 μl per nostril, on P2 and P4. For the toxicokinetic study of AVR-48 in rat pups, a formulation of 10% DMSO, 20% tetraglycol, 20% PEG 400, and 50% sterile water was made fresh before administration (Shah, Das et al. 2021).
Statistical Analysis. All statistical analyses were performed using Graph Pad Prism version 7.0 (GraphPad Software, San Diego, CA). The data are expressed as the mean±SEM with n=5 to 7 mice in each group. Groups were compared with the two-tailed unpaired t-test and one- or two-way analysis of variance (ANOVA), as appropriate. P<0.05 was considered statistically significant. For the toxicology and PK study, a generalized Analysis of Variance/Covariance (ANOVA/ANCOVA) test was performed on the numerical data (3 or more animals/groups) on the study as follows: An automatic transformation was used to analyze the data for homogeneity of variance using Levene's test. Parametric and non-parametric trends were analyzed using the Williams and the Shirley-Williams tests, respectively. Homogeneous data was analyzed using the ANOVA/ANCOVA, and the significance of intergroup differences between the control and test item-treated groups was analyzed using Dunnett's test. Heterogeneous data was analyzed using Kruskal-Wallis test and the significance of intergroup differences between the control and test item-treated groups was assessed using a nonparametric Dunnett's test. All data are reported as ±SEM. […]

[2] = system: Primary splenocytes of C57BL/6J mice; experiment: Polarization of mouse primary splenocytes, FACS; type: cell-based
Method: Primary splenocytes of C57BL/6J mice (n=3-5) were treated of AVR 48 for 72 hrs. PMA (200 ng/mL) was used as a positive control. The cells were washed and stained for CD11b and MHC-II and were analyzed by FACS. Dead cells were excluded by Live/dead staining during analysis. It was observed that the expression levels of MHC-II and CD11b increased upon AVR48 stimulation in a dose dependent manner in splenocytes. Monocytes were further analyzed for Ly6c. As described by (Swirski et al, J Clin Invest, 2007, 117(1):195-205. doi: 10.1172/JCI29950), spleen cells with LY6c Hi are considered as inflammatory whereas Ly6c low as resident and anti-inflammatory (FIG. 24A). Next, live singlet cells that were CD11b hi and CD11c low, were gated for F4/80 and MHC-II expression. Cells having increased expression of F4/80 and MHC-II were considered as macrophages whereas cells having low expression of F4/80 were considered as monocytes.

In the case of `CC(=O)N[C@@H]1C(Oc2ccc([N+](=O)[O-])cc2)OC(CO)C(O)C1O` (stereo partly drawn) [AVR-48], the “inflammation in room air animals” value ([1]; RA+AVR-48 treated group) is reported as “increased inflammation”, the IL-1β ([1]; lung homogenates, vs BPD) is reported as “marked decrease” and the IL-13 ([1]; lung homogenates, vs BPD) is reported as “marked decrease”. For the same compound, the TNFα ([1]; lung homogenates, vs BPD) was “marked decrease”, the “nuclear factor kappa B (NFkB)” value ([1]; lung homogenates, vs BPD) was “marked decrease” and the “Angiopoetin 2 (Ang2)” value ([1]; lung, vs BPD) was “significantly decreased”. For the same compound, the Vegf-D protein ([1]; lung, vs BPD) was “decreases”, the IL-10 ([1]; lung, vs BPD group) was “increased” and the “Total vascular endothelial growth factor (Vegf)” value ([1]; lung, vs BPD group) was “increased considerably”. For the same compound, the “bone morphometric protein receptor (BmpR)II” value ([1]; lung, vs BPD group) was “significantly decreased”, the “endothelial nitric oxide synthase (eNOS)” value ([1]; lung, vs BPD group) was “significantly decreased” and the IL-4 ([1]; lungs, vs BPD group) was “decrease”. The TGFβ ([1]; lungs, vs BPD group) was “decrease”, the “TLR4 expression in the lungs” value ([1]; whole lung homogenates, after treatment) was “increase in the expression of TLR4” and the “IL-10 concentration in plasma” value (pre-term lamb BPD model; early time points (1-4 days), 2/d for 7 days, vs vehicle) was “significantly decreased”. The “IL-6 concentration in plasma” value (pre-term lamb BPD model; vs vehicle treated lambs after 10 days) was “significantly decreased”, the “toxic effects in the visceral organs” value (mice or rat pups; high dose of 100 mg/kg) was “did not have any toxic effects” and the “hematological or clinical chemistry parameters” value (mice or rat pups; in vivo) was “no change”. For the same compound, the therapeutic index (mice or rat pups; juvenile mouse, minimum efficacious dose 5 mg/kg/day vs NOAEL 100 mg/kg/day) was 20 fold, the “systemic gross observations at necropsy in the visceral organs” value (mice or rat pups; mouse and rat pups) was “no evidence of any AVR-48 related systemic gross observations” and the “white blood cell count, lymphocyte count (females only), total bilirubin (SC groups only)” value (mice or rat pups; treated animals, considered non-adverse, not dose dependent) was “slight decrease”. The injection site findings (mice or rat pups; twice daily IV at 50 mg/kg/dose vs vehicle IV) was “higher incidence of dermal/subcutaneous hemorrhage at the injection site”, the “tolerability of all doses” value (mice or rat pups; two doses/day >6 h apart, up to 100 mg/kg/day IV, up to 150 mg/kg/day SC, 3 consecutive days, P3-P5 pups) was “well tolerated” and the “adverse clinical signs and body weight” value (mice or rat pups; up to 100 mg/kg/day IV, up to 150 mg/kg/day SC, 3 days) was “no observed adverse clinical signs and or any change in body weight”. For the same compound, the “resident/anti-inflammatory macrophages (Ly6c hi/low)” value ([2]; 48-72 h) was “produces more resident/anti-inflammatory macrophages”, the “expression level of CD11b” value ([2]; 72 hrs, dose dependent manner) was “increased” and the “expression level of MHC-II” value ([2]; 72 hrs, dose dependent manner) was “increased”.
